From ChEMBL document CHEMBL2417368, “Structure-based discovery of novel amide-containing nicotinamide phosphoribosyltransferase (nampt) inhibitors” (J Med Chem, 2013) come the findings set out here.

Where only a bound is given, the exact number is not on record here.

The nature of data set [1]: Intrinsic clearance in CD-1 mouse hepatocytes at 1 uM after 10 mins by LC-MS/MS analysis. The format is ADME, cell-based, Hepatocyte. The settings on record: read-out: CLH.
A short description of data set [2]: (§1) Metabolic stability in mouse liver microsomes assessed as compound remaining at 1 uM after 30 mins LC-MS analysis. Type of data set: ADME, Microsome. The settings on record: liver microsomes, read-out: Stability. (Liver microsomes are vesicles of endoplasmic reticulum, rich in cytochrome P450 enzymes.)
The nature of data set [3]: Intrinsic clearance in human hepatocytes at 1 uM after 10 mins by LC-MS/MS analysis. Type of data set: ADME, cell-based, Hepatocyte. As to conditions: read-out: CLH.
A short description of another data set: in vitro. The settings on record: dog, MDCK.
Another data set has as its system A2780. The experiment in a line: cells. The settings on record: Homo sapiens, A2780, 72 h.
Data set [4] in a line: Fraction unbound in human plasma at 5 uM after 4 hrs by LC-MS/MS analysis. The format is ADME, cell-free.
Data set [5] in a line: (§2) Metabolic stability in human liver microsomes assessed as compound remaining at 1 uM after 30 mins LC-MS analysis. As to conditions: liver microsomes, read-out: Stability. Type of data set: ADME, Microsome.
Data set [6] can be described thus: Fraction unbound in mouse plasma at 5 uM after 4 hrs by LC-MS/MS analysis. Type of data set: ADME, cell-free.
In data set [7] the test system is Liver. The description is as §1. The format is ADME, Microsome. As to conditions: microsomes, 0.5 h, 1 µM, BLD = below limit of detection.
The target in data set [8] is Nicotinamide phosphoribosyltransferase (Homo sapiens, UniProt P43490).
The subject of data set [9] is Liver. The description is as §2. The format is ADME, Microsome. As to conditions: microsomes, 0.5 h, 1 µM, BLD = below limit of detection.

Nicotinamide phosphoribosyltransferase, sequence (P43490 whole entry): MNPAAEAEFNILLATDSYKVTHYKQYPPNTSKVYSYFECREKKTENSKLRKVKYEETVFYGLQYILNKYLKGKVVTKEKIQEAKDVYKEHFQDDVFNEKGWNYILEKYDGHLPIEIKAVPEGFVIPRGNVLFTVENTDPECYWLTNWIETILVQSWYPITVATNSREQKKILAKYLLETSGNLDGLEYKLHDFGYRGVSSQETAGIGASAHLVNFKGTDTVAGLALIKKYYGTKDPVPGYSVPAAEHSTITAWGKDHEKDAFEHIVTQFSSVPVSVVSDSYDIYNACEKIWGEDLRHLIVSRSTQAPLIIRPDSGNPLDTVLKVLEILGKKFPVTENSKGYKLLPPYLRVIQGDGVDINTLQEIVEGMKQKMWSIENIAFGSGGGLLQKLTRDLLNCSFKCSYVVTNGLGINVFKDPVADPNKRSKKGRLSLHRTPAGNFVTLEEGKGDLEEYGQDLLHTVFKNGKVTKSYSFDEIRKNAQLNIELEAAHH

As a reminder, the Papp A→B is the apparent permeability from the apical to the basolateral side of a cell layer. The term IC50 denotes the concentration that gives 50% inhibition. A high value points to lower potency. What is called fraction unbound is the share of the substance not bound to proteins or other matrix. A low value points to little free substance. Turning to `O=C(NCc1ccc(S(=O)(=O)c2cccc(C(F)(F)F)c2)cc1)c1cc2ccncc2s1`, the values for the CLint scaled at 1 µM in data set [1] and in data set [3] were 73 mL/min/kg and 14 mL/min/kg, respectively. The remaining at 0.5 h, 1 µM in [2] came out at 35%; in data set [5], 43%. The same compound displayed an apparent permeability from apical to basolateral (Papp A→B) at 10 µM in the data set “in vitro” of 8 ×10⁻⁶ cm/s. Further, the IC50 in the data set on A2780 turned out to be 1 nM. Also, the fraction unbound at 4 h, 5 µM in data set [4] amounted to 0.004; in data set [6], 0.002.

Consider `Cn1c(C(=O)NCc2ccc(S(=O)(=O)c3ccccc3)cc2)cc2ccncc21`, for which, in the data set with Liver [7], the Stability result is listed as “BLD”. Moreover, the IC50 in data set [8] is 410 nM; with A2780, greater than 10000 nM. Moreover, in data set [5], the remaining at 0.5 h, 1 µM was 71%.

For `O=C(NCc1ccc(S(=O)(=O)N2CCCCC2)cc1)c1cc2ccncc2[nH]1`, the Stability result with Liver [7] is given as “BLD”. Moreover, the IC50 in data set [8] worked out at 1000 nM; in the data set on A2780, 1700 nM. Moreover, the remaining at 0.5 h, 1 µM in data set [5] turned out to be 50%.

As to `O=C(NCc1ccc(S(=O)(=O)c2ccc(N3CCOCC3)nc2)cc1)c1ccc2nccn2c1`, the CLint scaled at 1 µM in data set [1] is 43 mL/min/kg; in [3], 10 mL/min/kg. Further, the figures for the remaining at 0.5 h, 1 µM in data set [2] and in data set [5] were 75% and 65%, respectively. The half-maximal inhibitory concentration (IC50) amounted to 6 nM in data set [8] and 1 nM in the data set on A2780. The compound also registered a Papp A→B at 10 µM in the data set “in vitro” of 3 ×10⁻⁶ cm/s. The values for the fraction unbound at 4 h, 5 µM in data set [4] and in data set [6] were 0.012 and 0.025, respectively.

Regarding `O=C(NCc1ccc(S(=O)(=O)N2CCCCC2)cc1)c1ccc2ncsc2c1`, the Stability result with Liver [7] is “BLD”. Also, the IC50 was 37 nM in [8] and greater than 10000 nM in the data set on A2780. In data set [5], the remaining at 0.5 h, 1 µM was found to be 24%.

Regarding `O=C(NCc1ccc(S(=O)(=O)c2cc(F)cc(F)c2)cc1)c1cc2ccncc2s1`, the CLint scaled at 1 µM in data set [1] was determined as 78 mL/min/kg; in data set [3], 16 mL/min/kg. Besides, the remaining at 0.5 h, 1 µM in data set [2] is 32%; in data set [5] it was 41%. The free fraction (fraction unbound) at 4 h, 5 µM in data set [4] is 0.009; in data set [6], 0.011.

With `O=C(NCc1ccc(S(=O)(=O)N2CCCCC2)cc1)c1cc2cccnc2s1`, the Stability entry in the data set on Liver [7] and with Liver [9] was “BLD” each time. Moreover, the results for the IC50 (in data set [8]; in the data set on A2780) were 8 nM and greater than 10000 nM, respectively.

On to `O=C(NCc1ccc(S(=O)(=O)N2CCCCC2)cc1)c1cc2cnccc2s1`, for which the Stability result with Liver [7] is “BLD”. Moreover, the IC50 in data set [8] is 150 nM; in the data set with A2780, 1600 nM. Besides, in [5], the remaining at 0.5 h, 1 µM amounted to 15%.

As to `N#CN=C(NCCCCCCOc1ccc(Cl)cc1)Nc1ccncc1` [CHS-828], the CLint scaled at 1 µM turned out to be 21 mL/min/kg in [1] and 7 mL/min/kg in data set [3]. Besides, the remaining at 0.5 h, 1 µM was found to be 63% in [2] and 61% in [5]. This compound also came in with a Papp A→B at 10 µM in the data set “in vitro” of 10 ×10⁻⁶ cm/s. Also, the unbound share (fraction unbound) at 4 h, 5 µM in [4] and in data set [6] was 0.005 throughout.

Consider `O=C(/C=C/c1cccnc1)NCCCCC1CCN(C(=O)c2ccccc2)CC1` [DAPORINAD], for which the results for the CLint scaled at 1 µM in [1] and in data set [3] were 67 mL/min/kg and 15 mL/min/kg, respectively. The values for the remaining at 0.5 h, 1 µM in data set [2] and in [5] were 7.7% and 46.7%, respectively. For the same compound, in the data set “in vitro”, the Papp A→B at 10 µM was 15 ×10⁻⁶ cm/s. Further, the fraction unbound at 4 h, 5 µM came out at 0.007 in data set [4] and 0.033 in data set [6].

As to `O=C(NCc1ccc(S(=O)(=O)c2ccc(N3CCOCC3)nc2)cc1)c1cnc2nccn2c1`, the CLint scaled at 1 µM is 69 mL/min/kg in data set [1] and 6 mL/min/kg in data set [3]. Also, the remaining at 0.5 h, 1 µM in [2] and in data set [5] was 86% in each case. In addition, the IC50 in [8] came out at 1 nM; with A2780 it was 2 nM. The Papp A→B at 10 µM in the data set “in vitro” is 0.3 ×10⁻⁶ cm/s. Further, the fraction unbound at 4 h, 5 µM worked out at 0.028 in data set [4] and 0.12 in data set [6].

Regarding `O=C(NCc1ccc(S(=O)(=O)c2cc(F)cc(F)c2)cc1)c1cc2cnccc2[nH]1`, the CLint scaled at 1 µM in data set [1] is 70 mL/min/kg; in data set [3], 7 mL/min/kg. Also, the remaining at 0.5 h, 1 µM amounted to 63% in data set [2] and 82% in data set [5]. The same compound gave an apparent permeability from apical to basolateral (Papp A→B) at 10 µM in the data set “in vitro” of 12 ×10⁻⁶ cm/s.

Take `O=C(NCc1ccc(S(=O)(=O)c2cccc(C(F)(F)F)c2)cc1)c1cc2cnccc2[nH]1`: the CLint scaled at 1 µM in data set [1] is 60 mL/min/kg; in data set [3], 10 mL/min/kg. For the same compound, the remaining at 0.5 h, 1 µM turned out to be 49% in data set [2] and 81% in data set [5]. Moreover, the values for the IC50 (in data set [8]; in the data set with A2780) were 8 nM and 3 nM, respectively. This compound gave an apparent permeability from apical to basolateral (Papp A→B) at 10 µM in the data set “in vitro” of 5 ×10⁻⁶ cm/s. Moreover, the fraction unbound at 4 h, 5 µM in data set [4] was 0.006; in data set [6], 0.007.

Turning to `O=C(NCc1ccc(S(=O)(=O)c2cc(F)cc(F)c2)cc1)c1cnc2nccn2c1`, the CLint scaled at 1 µM worked out at 74 mL/min/kg in [1] and 6 mL/min/kg in data set [3]. The remaining at 0.5 h, 1 µM came out at 71% in data set [2] and 78% in [5]. The same compound registered a Papp A→B at 10 µM in “in vitro” of 5 ×10⁻⁶ cm/s. Moreover, half-maximal inhibition in the data set on A2780 (IC50) was put at 3 nM. Moreover, the fraction unbound at 4 h, 5 µM worked out at 0.122 in data set [4] and 0.133 in data set [6].

With `O=C(NCc1ccc(S(=O)(=O)c2cccc(C(F)(F)F)c2)cc1)c1cc2ccncc2o1`, the CLint scaled at 1 µM in [1] stood at 25 mL/min/kg; in data set [3], 10 mL/min/kg. In addition, the figures for the remaining at 0.5 h, 1 µM in data set [2] and in data set [5] were 64% and 48%, respectively. The 50% inhibitory concentration (IC50) stood at 5 nM in data set [8] and 3 nM with A2780. The apparent permeability from apical to basolateral (Papp A→B) at 10 µM in “in vitro” was 13 ×10⁻⁶ cm/s. In addition, the fraction unbound at 4 h, 5 µM in data set [4] was found to be 0.01; in [6] it was 0.011.

As to `O=C(NCc1ccc(S(=O)(=O)c2ccc(N3CCOCC3)nc2)cc1)c1cc2cnccc2[nH]1`, in [1], the CLint scaled at 1 µM came out at 57 mL/min/kg. Further, the remaining at 0.5 h, 1 µM was 72% in [2] and 75% in data set [5]. The results for the IC50 (in data set [8]; with A2780) were 7 nM and 1 nM, respectively. The compound also returned an apparent permeability from apical to basolateral (Papp A→B) at 10 µM in “in vitro” of 1 ×10⁻⁶ cm/s. Further, the fraction unbound at 4 h, 5 µM was 0.011 in data set [4] and 0.015 in data set [6].

For the compound `O=C(NCc1ccc(S(=O)(=O)c2ccc(N3CCOCC3)nc2)cc1)c1cc2ccncc2o1`, the values for the CLint scaled at 1 µM in data set [1] and in [3] were 48 mL/min/kg and 14 mL/min/kg, respectively. Also, the remaining at 0.5 h, 1 µM came to 42% in data set [2] and 51% in data set [5]. Also, the IC50 in [8] is 3 nM; in the data set with A2780, 1 nM. The compound further gave an apparent permeability from apical to basolateral (Papp A→B) at 10 µM in “in vitro” of 15 ×10⁻⁶ cm/s. Further, the fraction unbound at 4 h, 5 µM in [4] amounted to 0.005; in [6] it was 0.017.
